According to article PMC6222509, “Dibasic Derivatives of Phenylcarbamic Acid against Mycobacterial Strains: Old Drugs and New Tricks?” (Molecules : A Journal of Synthetic Chemistry and Natural …, 2018):
In brackets after ≈: the same amount, converted by molar mass. Where two headings read alike, the source gives them in different places.

What was measured:
[1] = tested on: Mycobacterium tuberculosis CNCTC My 331/88 (identical with H37Rv and ATCC 2794; MTv H37Rv); test: in vitro antimycobacterial MIC, dilution micromethod in Šula's semisynthetic medium; type: cell-based
[2] = tested on: M. tuberculosis H37Ra ATCC 25177 (MTa H37Ra); test: in vitro antimycobacterial MIC, 96-well Middlebrook broth, alamarBlue; type: cell-based, Mycobacterium tuberculosis; conditions: 7-day cultivation, read-out: MIC MTa H37Ra 7-d
Protocol: In vitro susceptibitity of given mycobacteria to reference drugs isoniazid (INH), ethambutol (EMB), ofloxacin (OFLX) or ciprofloxacin (CPX) was tested as well (Table 6 and Table 7).
A value of a minimum inhibitory concentration (MIC) was the lowest concentration of a tested compound, (i) which inhibited growth of MTv H37Rv, MK 235/80, MK 6509/96 and MA 330/80, respectively; (ii) at which no visible growth of MTa H37Ra, MS, MK DSM as well as MM was observed.
The molecules 1a–p were also in vitro screened against an avirulent M. tuberculosis H37Ra ATCC 25177 (MTa H37Ra), M. kansasii DSM 44162 (MK DSM), M. smegmatis ATCC 700084 (MS) and M. marinum CAMP 5644 (MM), respectively, in the Department of Infectious Diseases and Microbiology (Faculty of Veterinary Medicine, University of Veterinary and Pharmaceutical Sciences in Brno, Czech Republic).
Determination of a minimum inhibitory concentration (MIC) against MTa H37Ra. The mycobacterium was grown on Middlebrook broth (MB; MiddleBrook Pharmaceuticals, Inc., Westlake, TX, USA), supplemented with Oleic-Albumin-Dextrose-Catalase (OADC) supplement (Difco, Lawrence, KS, USA) and salicylate-derived mycobactin J (2 μg/mL; Allied Monitor Inc., Fayette, MO, USA), an iron-binding siderophore.
At log phase growth, a culture sample (10 mL) was centrifuged at 15,000 rpm/20 min using a bench top centrifuge MPW-65R (MPW Med Instruments, Warsaw, Poland). Following removal of the supernatant, a pellet was washed in fresh liquid Middlebrook 7H9GC broth (MiddleBrook Pharmaceuticals, Inc.) and re-suspended in a fresh OADC-supplemented MB (10 mL).
Turbidity was adjusted to match the McFarland standard No. 1 [87] containing approximately 3 × 10^8 Colony Forming Units (CFU) with MB broth. Further 1:20 dilution of the culture was performed in MB broth.
Susceptibility of MTa H37Ra was investigated in a 96-well plate format. In the experiments, sterile deionized water (300 µL) was added to all outer-perimeter wells of the plates to minimize evaporation of the medium in test wells during incubation. Each evaluated compound (100 µL) was incubated with MTa H37Ra (100 µL). Dilutions of each compound were prepared in triplicate and final concentrations varied from 1000 μg/mL to 8 μg/mL. All tested molecules were dissolved in DMSO (Sigma-Aldrich, Irvine, UK), and subsequent dilutions were made in supplemented MB broth. The plates were sealed with parafilm and incubated at 37 °C for 7 days.
Following incubation, 10% addition a water-soluble dye, the alamarBlue reagent (AbD Serotec, Kidlington, UK) was mixed into each well. This resaurin-based reagent served as an oxidation-reduction indicator of metabolic function and cellular health in cell viability bioassays.
Absorbance readings at 570 nm and 600 nm were taken, initially for background subtraction and after 24h re-incubation. The subtraction is necessary for strongly colored compounds, where the color may interfere with the interpretation of any color change. For non-interfering compounds, a blue color in a well was interpreted as absence of growth and pink color was scored as growth.
The minimum inhibitory concentration (MIC) was defined as the lowest concentration of a compound, at which no visible bacterial growth was observed. In other words, the MIC was the lowest concentration that prevented visual color change from blue to pink.

white mice = conditions: subcutaneous application; cited from earlier work
[3] = tested on: M. kansasii CNCTC My 235/80 (identical with ATCC 12478; MK 235/80); test: in vitro antimycobacterial MIC, dilution micromethod in Šula's semisynthetic medium; type: cell-based, Mycobacterium kansasii
[4] = tested on: M. avium CNCTC My 330/80 (identical with ATCC 25291; MA 330/80); test: as above; type: cell-based, Mycobacterium avium
[5] = tested on: M. marinum CAMP 5644 (MM); test: in vitro antimycobacterial MIC, broth dilution micromethod in Middlebrook 7H9; type: cell-based, Mycobacterium marinum; conditions: Mycobacterium marinum, 504 h
[6] = tested on: M. smegmatis ATCC 700084 (MS); test: as above; type: cell-based, Mycobacterium smegmatis; conditions: Mycolicibacterium smegmatis, ATCC700084, 72 h
guinea pig = tested on: guinea pig; parameters: method as in PMID 8402965; conditions: intradermal, 0.02 M procaine as standard; cited from earlier work
rabbit cornea = tested on: rabbit cornea; parameters: method as in PMID 8402965; conditions: 0.01 M cocaine as standard; cited from earlier work
[7] = Mycobacterium tuberculosis, 336 h, 14-day cultivation, read-out: MIC MTv H37Rv 14-d
[8] = Mycobacterium tuberculosis, 504 h, 21-day cultivation, read-out: MIC MTv H37Rv 21-d
[9] = Mycobacterium tuberculosis, 168 h
[10] = read-out: MIC MM 21-d, 21-day cultivation, 28 °C
[11] = read-out: MIC MS 3-d, 3-day cultivation, 37 °C

## CCCCCCOc1ccccc1NC(=O)OC(CN(CCC)CCC)CN1CCCC1 (stereo not shown) [1c]
[1]; [7]
  MIC: 16 µM (≈ 7.16 µg/mL)
[1]; [8]
  MIC: 16 µM (≈ 7.16 µg/mL)
[2]; [9]
  MIC: 25 µM (≈ 11.2 µg/mL)
White mice
  LD50: 600 mg/kg
[3]; Mycobacterium kansasii, ATCC12478, 168 h, 7-day cultivation, read-out: MIC MK 235/80 7-d
  MIC: 32 µM (≈ 14.3 µg/mL)
[3]; Mycobacterium kansasii, ATCC12478, 336 h, 14-day cultivation, read-out: MIC MK 235/80 14-d
  MIC: 32 µM (≈ 14.3 µg/mL)
[3]; Mycobacterium kansasii, ATCC12478, 504 h, 21-day cultivation, read-out: MIC MK 235/80 21-d
  MIC: 32 µM (≈ 14.3 µg/mL)
[4]; Mycobacterium avium, ATCC25291, 336 h, 14-day cultivation, read-out: MIC MA 330/80 14-d
  MIC: 32 µM (≈ 14.3 µg/mL)
[4]; Mycobacterium avium, ATCC25291, 504 h, 21-day cultivation, read-out: MIC MA 330/80 21-d
  MIC: 62.5 µM (≈ 28 µg/mL)
[5]; 21-day cultivation, 28 °C, read-out: MIC MM 21-d
  MIC: 25.5 µM (≈ 11.4 µg/mL)
[6]; 3-day cultivation, 37 °C, read-out: MIC MS 3-d
  MIC: 51 µM (≈ 22.8 µg/mL)

## CCCCCOc1cccc(NC(=O)OC(CN(CCC)CCC)CN2CCCC2)c1.Cl.Cl (stereo not shown) [1f, 1-[2-[({[3-(pentyloxy)phenyl]amino}carbonyl)oxy]-3-(dipropylammonio)propyl]-pyrrolidinium dichloride]
[1]; [7]
  MIC: 16 µM
[1]; [8]
  MIC: 16 µM
Guinea pig
  Ui, index of relative infiltration local anesthetic efficiency: 250
[2]; [9]
  MIC: < 3.9 µM
Rabbit cornea
  Us, index of relative surface local anesthetic efficiency: 130
[3]; Mycobacterium kansasii, ATCC12478, 168 h, read-out: MIC MK 235/80 7-d
  MIC: 16 µM
[3]; Mycobacterium kansasii, ATCC12478, 336 h, read-out: MIC MK 235/80 14-d
  MIC: 16 µM
[3]; Mycobacterium kansasii, ATCC12478, 504 h, read-out: MIC MK 235/80 21-d
  MIC: 32 µM
[4]; Mycobacterium avium, ATCC25291, 336 h, read-out: MIC MA 330/80 14-d
  MIC: 32 µM
[4]; Mycobacterium avium, ATCC25291, 504 h, read-out: MIC MA 330/80 21-d
  MIC: 32 µM
[5]; [10]
  MIC: < 3.9 µM
[6]; [11]
  MIC: 15.8 µM

## CCCCCCCOc1cccc(NC(=O)OC(CN(CCC)CCC)CN2CCCCCC2)c1.Cl.Cl (stereo not shown) [1p, 1-[2-[({[3-(heptyloxy)phenyl]amino}carbonyl)-oxy]-3-(dipropylammonio)propyl]azepanium dichloride]
[1]; 14-day cultivation, read-out: MIC MTv H37Rv 14-d
  MIC: 4 µM
[1]; 21-day cultivation, read-out: MIC MTv H37Rv 21-d
  MIC: 8 µM
[2]
  MIC: 7.1 µM
[3]; 7-day cultivation, read-out: MIC MK 235/80 7-d
  MIC: 8 µM
[3]; 14-day cultivation, read-out: MIC MK 235/80 14-d
  MIC: 8 µM
[3]; 21-day cultivation, read-out: MIC MK 235/80 21-d
  MIC: 8 µM
[3]; Mycobacterium kansasii, ATCC12478, cultivation time not given, read-out: MIC MK 235/80
  MIC: 8 µM
[4]; 14-day cultivation, read-out: MIC MA 330/80 14-d
  MIC: 16 µM
[4]; 21-day cultivation, read-out: MIC MA 330/80 21-d
  MIC: 16 µM
[5]; [10]
  MIC: 7.1 µM
[6]; [11]
  MIC: 7.1 µM
